Consider one compound from patent US12502371B2, “Drug for treating and preventing dementia” (Numan Labo LLC, priority 2019, dated 2025).

This assay concerns mice. As to the kind of experiment: Y-maze test in mice given scopolamine. The assay is classed as in vivo, mouse. Particulars: based on total motor activity and correct alternation rate, scopolamine-treated mice.

Procedure: The Y-maze test was performed in mice divided into three types A, B, and C. The mice were placed in a Y-maze and allowed to move freely for 6 minutes. The sequence of entries into each arm and the total number of arm entries were measured since mice have the habit of always choosing a new arm of the maze. In order to evaluate the degree of memory impairment, the correct alternation rate was calculated based on the percentage of correct arm entries out of the total number of arm entries. Mice of types A, B, and C received drugs as shown below. […] The total number of entries and percentage of correct alternations were analyzed based on data obtained from the Y-maze test. Four mice from each type were examined. The following animals were used in the experiments. • Species: mouse • Strain: Crj:ICR • Sex: male • Age in weeks: 4

As for `COc1ccccc1OCC(O)COC(N)=O` (stereo not shown) [Methocarbamol, methocarbamol], the “Effect on cognitive function (in words)” value is listed as “had the effect of improving cognitive function”.
